{
  "source": "patent US6897316B2",
  "about": "“Substituted 2-phenyl-4-quinolone-3-carboxylic acid compounds and their use as antitumor agents” (China Medical University, priority 2003, dated 2005)",
  "system": "lung cancer cell line (A-549)",
  "test": "Preliminary cytotoxicity screening against lung cancer cell line A-549 (SRB assay)",
  "assay_type": "cell-based, human",
  "settings": "Homo sapiens, A549; A-549; 50% reduction in absorbance at 562 nm relative to untreated cells, SRB assay; Table 1 (esters VII, acids IX); read-out: ED50 (cytotoxicity against A-549)",
  "experimental": "Compounds were assayed for in vitro cytotoxicity in a panel of human tumor cell lines at the School of Pharmacy, University of North Carolina at Chapel Hill, according to procedures described previously [Lee, K. H., Lin, Y. M., Wu, T. S., Zhang, D. C., Yamagishi, T., Hayashi, T., Hall, I. H., Chang, J. J., Wu, R. Y., Yang, T. H. The cytotoxic principles of Prunella vulgaris, Psychotria serpens, and Hyptis capitata: Ursolic acid and related derivatives. Planta Med. 1988, 54, 308-11; Boyd, M. R. Status of the National Cancer Institute preclinical antitumor drug discovery screen: implications for selection of new agents for clinical trial. Devita, V. T., Jr. Hellman, S., Rosenberg, S. A., Eds, J. B. Cancer: Principles and Practice of Oncology Update, 1989, 3: pp1-12, Lippincoft: Philadephia; Monks, A., Scudiero, D., Skehan, P., Shoemaker, R., Paull, K., Vistica, D., Hose, C., Langley, J., Cronise, P., Vaigro-Wolff, A., Gray-Goodrich, M., Campbell, H., Mayo, J., Boyd, M. Feasibility of a high-flux anticancer drug screen using a diverse panel of cultured human tumor cell lines. J. Natl. Cancer Inst. 1991, 83, 757-66.] The cell lines included human ovarian cancer (1A9), ileocecal carcinoma (HCT-8), lung carcinoma (A-549), glioblastoma (U-87-MG), bone (HOS), epidermoid carcinoma of the […] (KB), P-gp-expressing epidermoid carcinoma of the nasopharynx (KB-VIN), and melanoma (SKMEL-2) cell line. The cytotoxic effects of each compound were obtained as EC50 values, which represent the molar drug concentrations required to cause 50% inhibition.\nPreliminary screening of antitumor activity was based on the cytotoxicity tested in human long cancer (A-549) cell lines. […] Among 3-carboxylic acid derivatives (IX), the cytotoxicity was not remarkable when the m-position of 2-phenyl group was substituted by OCH3 group (IX-3, 7, 11). ED50 values were greater than 20 μg/mL. […] The antitumor activity was not good, if there was no substitution on the m-position of 2-phenyl group ([…]).",
  "data": [
    {"compound": "COc1ccc2[nH]c(-c3cccc(F)c3)c(C(=O)O)c(=O)c2c1", "note": "[IX-8, 3′-Fluoro-6-methoxy-2-phenyl-4-quinolone-3-carboxylic acid]", "values": [
      {"measurement": "IC50", "result": 0.19, "unit": "µg/mL"}
    ]}
  ]
}
